These are literature values, as cited in US11951146B2, “Stimulation of NK cell activity by using a combination of broccoli, Nigella Sativa, Green Tea, and pterostilbene alone and together with metformin” (Therapeutic Solutions International, Inc., priority 2020, dated 2024).

Like-named read-outs stand apart in the source and are kept apart here.

As a reminder, the bioavailability is the share of a dose that reaches the circulation, judged against a reference dose that is usually intravenous.

Series [1] has as its system LPS-induced ARDS. As to conditions: EGCG 10 mg/kg ip.
For series [2], the system named is lipopolysaccharide-activated macrophages.
Series [3] concerns polymicrobial sepsis. Conditions: 10 mg/kg intraperitoneally, 72 h after CL2P.
Series [4] deals with myocardial ischemia and reperfusion. As to conditions: EGCG 10 mg/kg intravenously then 10 mg/kg/h infusion.
Series [5] concerns polymicrobial sepsis. Conditions: 10 mg/kg intraperitoneally at 1 and 6 h after CL2P and every 12 h.
For series [6], the system named is macrophage foam cells.
For series [7], the system named is lethal endotoxemia / lethal sepsis.
The test system of series [8] is experimental colitis. As to conditions: 50 and 100 mg/kg/day EGCG.
Series [9] has as its system sepsis. As to conditions: for concentration of IL-la: controls 1187.0±278.64.
The subject of series [10] is lipopolysaccharide-induced inflammatory reactions.
For series [11] the following is noted: rat, in vivo.
The test system of series [12] is interleukin-1, interleukin-6, interleukin-8, TNF-alpha.
Series [13] has as its system LPS-challenged macrophages. As to conditions: pre-incubated 6 h, then LPS 24 h.
Series [14] deals with LPS-induced ARDS.
In series [15] the test system is primary peritoneal macrophages.

Turning to epigallocatechin-3-gallate [EGCG], in [1], the “expression of IκB-α” value is on record as “increased the expression”; the “expression of TLR-4, MyD88, TRIF and p-p65 in the lung tissue” value is “alleviated the expression”; the “expression of TNF-α, IL-1β and IL-6 in lung, serum and bronchoalveolar lavage fluid” value is listed as “significantly decreased”; the “expression of p65” value was “had no influence”. The NO production entry in series [2] (cells cotreated with EGCG and LPS) is on record as “Inhibition”. The “activation of nuclear factor-kappaB” value in series [2] (electrophoretic mobility shift assay) is “blocked the activation”. Also, the survival result in series [3] is recorded as “significantly improved”. Besides, in [4], the “myocardial damage and myeloperoxidase activity” value is reported as “reduced”; the “plasma IL-6 and creatine phosphokinase levels” value is “decreased”. Further, in [5], the “hypotension (mean arterial blood pressure)” value is “significantly improved”. Moreover, the “TNF-α-induced nuclear factor-κB (NF-κB) activity” value in series [6] is on record as “inhibition”. The “TNF-α-induced downregulation of ABCA1 and decrease in cholesterol efflux to apoA1” value in series [6] (pretreatment with EGCG) was “attenuated”. In addition, the “rescue from lethal sepsis” value in [7] (first dose 24 hours after cecal ligation and puncture) was “rescued”. In addition, the “protection against lethal endotoxemia” value in series [7] (intraperitoneal) is “protected”. For the same compound, in series [8], the “HIF-la and STAT3 protein expression in the colon” value is recorded as “decreasing”; the “plasma levels of IL-1β and TGF-β1” value is reported as “increasing”; the “release of IL-6 and IL-17” value was “reduce the release”.
For `CC1=CC(=O)C(C(C)C)=CC1=O` [thymoquinone], in [9] (0.75 mg/kg thymoquinone dose), the “concentration of IL-la” value is 310.8 ± 70.93 pg/mL. Besides, the IL-1β levels in series [9] (0.75 mg/kg thymoquinone, controls 5505.2±333.96) was 2885.0 ± 553.98 pg/mL. Moreover, the “concentration of IL-la” value in [9] (1 mg/kg group) is 428.3 ± 71.32 pg/mL. Besides, the “levels of TNF-α and IL-2” value in series [9] (P values=0.1817 and 0.0851) was “relatively lower levels”. Also, in [9] (mice, sepsis), the reduction of mortality was 80-90%; the “renal and hepatic biomarker profiles” value is reported as “improved”. The lipopolysaccharide-induced inflammatory reactions result in series [10] was “suppressed effectively”. Further, the “concentration of nitric oxide” value in series [10] (lipopolysaccharide-induced) is “reduced significantly”.
Take “trans-3,5-dimethoxy-4-hydroxystilbene [pterostilbene]”: in series [11], the bioavailability is recorded as 80%. Moreover, the “inhibition of interleukin-1, interleukin-6, interleukin-8 and TNF-alpha” value in [12] is “inhibition”.
Consider `C[S+]([O-])CCCCN=C=S` (stereo not shown) [sulforaphane, 1-isothiocyanato-4-(methylsulfinyl)-butane], for which the “expression of NO and cytokines” value in [13] is on record as “prevent the expression”. In addition, the “Nrf2/antioxidant response element (ARE) pathway” value in series [14] (pre-treatment) was “activated”. Moreover, in series [14] (sulforaphane 50 mg/kg, LPS 5 mg/kg 3 days later), the “LDH activity, wet-to-dry ratio of the lungs, serum IL-6 and TNF-α, nuclear factor-κB protein expression” value is reported as “significantly decreased”. Moreover, in series [14] (sulforaphane 50 mg/kg, LPS-induced ALI), the “PGE2 production, COX-2 and MMP-9 protein expression, iNOS activity” value was “significantly inhibited”. For the same compound, the HO-1 expression result in series [15] (LPS-stimulated Nrf2 (+/+) primary peritoneal macrophages) is on record as “significantly augmented”. Further, in series [15] (Nrf2 (+/+) primary peritoneal macrophages, pretreatment), the “LPS-stimulated mRNA expression, protein expression and production of TNF-alpha, IL-1beta, COX-2 and iNOS” value is on record as “potently inhibited”. The anti-inflammatory effect result in [15] (Nrf2 (−/−) primary peritoneal macrophages) was “attenuated”.
